Earlier results on six compounds are cited in patent publication US20250331549A1, “AEROSOL-GENERATING ARTICLE WITH AVERSIVE AGENT” (PHILIP MORRIS PRODUCTS S.A., priority 2022, published 2025).

Where [1] appears, read: reciprocal of the dilution that still has a bitter taste, known bittering agents, Table 1.
The mark [2] stands for this setting: quinine hydrochloride value is the set reference, denatonium benzoate value is estimated.

Structures can show the parent of a compound that is named as a salt. Where two headings read alike, the source gives them in different places.

As for `CC1=C[C@H]2[C@H]3[C@H](C(C)=C4[C@H]5OC(=O)[C@@H](C)[C@@H]5CC[C@](C)(O)[C@@H]43)[C@@]13[C@@H]2[C@@](C)(O)CC[C@H]1[C@H](C)C(=O)O[C@@H]13` [Absinthin, absinthin], under setting [1], the Bitterness value is given as 3,000,000. With `C[C@@]12C[C@@H](c3ccoc3)OC(=O)[C@@H]1CC[C@]1(C)[C@H]2[C@@H]2C=C[C@@]1(O)C(=O)O2` [Columbin, columbin], the Bitterness value under setting [1] is 60,000,000. For the compound `CC[N+](CC)(CC(=O)Nc1c(C)cccc1C)Cc1ccccc1` [Denatonium benzoate, denatonium benzoate], the Bitterness value result is, setting by setting: under setting [2], “over 100,000,000”; under setting [1], >100,000,000.

In the case of `COC1=C[C@@H](C)[C@@H]2C[C@H]3OC(=O)C[C@H]4C(C)=C(OC)C(=O)[C@H]([C@@]2(C)C1=O)[C@@]34C` [Quassin, quassin], the Bitterness value under setting [1] was 13,000,000. On to `C=C[C@H]1C[N@@]2CC[C@H]1C[C@H]2[C@H](O)c1ccnc2ccc(OC)cc12` [Quinine hydrochloride, quinine hydrochloride, reference compound], for which the Bitterness value reads like this: under setting [2], 200,000; under setting [1], 200,000. For the compound amarogentin, under setting [1], the Bitterness value was 58,000,000.
